For test [1], the target named is human Werner helicase (WRN, amino acids 517-1235 with L1074F point mutation) (Homo sapiens (Human), UniProt Q14191, L1074F). In words: WRN (BV08) ADP-Glo assay. Type of test: biochemical. The following applies: human WRN (aa 517-1235, L1074F), read-out: ADP-Glo_hWRN_IC50. Summed up:
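Untagged WRN 517-1235 (L1074F), Sf9/baculovirus-expressed, 0.15 nM, preincubated 15 min with compound, then 5 μM ATP and 0.1 nM annealed DNA duplex added; 60 min at 25 °C in Bicine pH 7.5, 1 mM MgCl2, 1% DMSO. ADP-Glo luminescence; % inhibition vs DMSO and 20 μM NSC-617145 controls, four-parameter IC50 fit.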
Background: ADP-Glo turns the ADP formed in a reaction into a luminescent signal.

Test [2] relates to p21 induction in HCT 116 cells. As to the kind of experiment: p21 induction in cells (In-Cell Western, p21/GAPDH ratio). Type of test: cell-based. The following applies: Homo sapiens, 24 h compound incubation, read-out: p21_EC50. An outline of the steps: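 HCT 116 cells treated 24 h at 37° C with 11-point, 2-fold dilutions typically from 10 μM, in duplicate. Fixed cells co-stained for p21 (800 nm) and GAPDH (700 nm) by In-Cell Western. p21/GAPDH ratio normalised between DMSO and reference WRN inhibitor controls, and EC50 obtained by nonlinear regression.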

Some results are limits rather than exact numbers.

Sequence of human Werner helicase (WRN, amino acids 517-1235 with L1074F point mutation) (Q14191 other isoform, or with tags, fused parts or gaps L1074F (already in the parent)): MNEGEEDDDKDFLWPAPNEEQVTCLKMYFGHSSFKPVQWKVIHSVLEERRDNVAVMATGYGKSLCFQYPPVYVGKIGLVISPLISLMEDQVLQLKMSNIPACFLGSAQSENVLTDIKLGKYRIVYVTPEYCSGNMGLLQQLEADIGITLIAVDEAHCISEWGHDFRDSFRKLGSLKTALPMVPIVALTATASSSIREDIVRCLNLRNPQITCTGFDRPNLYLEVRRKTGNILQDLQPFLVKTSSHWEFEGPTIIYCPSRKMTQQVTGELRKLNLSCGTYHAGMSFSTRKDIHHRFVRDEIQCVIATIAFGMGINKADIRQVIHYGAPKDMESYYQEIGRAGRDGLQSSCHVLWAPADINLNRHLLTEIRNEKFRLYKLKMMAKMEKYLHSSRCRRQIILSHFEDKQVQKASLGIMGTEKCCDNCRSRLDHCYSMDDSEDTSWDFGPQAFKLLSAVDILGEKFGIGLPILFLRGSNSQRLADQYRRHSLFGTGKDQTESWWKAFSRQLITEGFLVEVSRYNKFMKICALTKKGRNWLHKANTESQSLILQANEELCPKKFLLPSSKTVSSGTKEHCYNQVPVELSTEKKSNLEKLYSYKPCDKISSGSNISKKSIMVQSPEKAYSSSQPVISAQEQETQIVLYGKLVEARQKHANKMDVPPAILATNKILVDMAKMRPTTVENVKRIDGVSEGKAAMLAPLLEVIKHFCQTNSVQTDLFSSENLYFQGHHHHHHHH

For `CCc1c(N2CCN(C(=O)c3ccc4cccc(O)c4n3)[C@H]3CC[C@@H]32)c(=O)c2nn(C3=CCOCC3)nc2n1CC(=O)NC12CC(C(C)C)(C1)C2` [Compound I-158, 2-[2-(3,6-dihydro-2H-pyran-4-yl)-5-ethyl-6-[(1S,6S)-5-(8-hydroxyquinoline-2-carbonyl)-2,5-diazabicyclo[4.2.0]octan-2-yl]-7-oxo-2H,4H,7H-[1,2,3]triazolo[4,5-b]pyridin-4-yl]-N-[3-(propan-2-yl)bicyclo[1.1.1]pentan-1-yl]acetamide], the IC50 in test [1] fell in the range of 5 to 50 nM. In addition, the EC50 in test [2] is at most 500 nM.

For `CCc1c(N2CCN(C(=O)c3ccc4cccnc4c3O)[C@H]3CC[C@@H]32)c(=O)c2nn(C3=CCOCC3)nc2n1CC(=O)NC12CC(C(C)C)(C1)C2` [Compound I-159, 2-[2-(3,6-dihydro-2H-pyran-4-yl)-5-ethyl-6-[(1S,6S)-5-(8-hydroxyquinoline-7-carbonyl)-2,5-diazabicyclo[4.2.0]octan-2-yl]-7-oxo-2H,4H,7H-[1,2,3]triazolo[4,5-b]pyridin-4-yl]-N-[3-(propan-2-yl)bicyclo[1.1.1]pentan-1-yl]acetamide], the IC50 in test [1] was 5 to 50 nM. Besides, in test [2], the EC50 was in the range of 500 to 2000 nM.

Turning to `CCc1c(N2CCN(C(=O)c3ncnc(C)c3O)[C@H]3CC[C@@H]32)c(=O)c2nn(C3CC4(COC4)C3)nc2n1CC(=O)NC12CC(C(C)C)(C1)C2` [Compound I-160, 2-{5-ethyl-6-[(1S,6S)-5-(5-hydroxy-6-methylpyrimidine-4-carbonyl)-2,5-diazabicyclo[4.2.0]octan-2-yl]-2-{2-oxaspiro[3.3]heptan-6-yl}-7-oxo-2H,4H,7H-[1,2,3]triazolo[4,5-b]pyridin-4-yl}-N-[3-(propan-2-yl)bicyclo[1.1.1]pentan-1-yl]acetamide], the IC50 in test [1] fell in the range of 5 to 50 nM. Besides, in test [2], the EC50 is 2000 to 5000 nM.

In the case of `CCc1c(N2CCN(C(=O)c3ccccc3C(=O)O)CC2)c(=O)c2nn(-c3ccnc(OC)c3)nc2n1CC(=O)NC12CC(C3CC3)(C1)C2` [Compound I-161, 2-(4-{4-[{{3-cyclopropylbicyclo[1.1.1]pentan-1-yl}carbamoyl)methyl]-5-ethyl-2-(2-methoxypyridin-4-yl)-7-oxo-2H,4H,7H-[1,2,3]triazolo[4,5-b]pyridin-6-yl}piperazine-1-carbonyl)benzoic acid], the IC50 in test [1] was 5 to 50 nM. Also, the EC50 in test [2] was over 5000 nM.

With `CCc1c(N2CCN(C(=O)OC)[C@H]3CC[C@@H]32)c(=O)c2nn(C3=CCOCC3)nc2n1CC(=O)NC12CC(C(C)C)(C1)C2` [Compound I-162, methyl (1S,6S)-5-[2-(3,6-dihydro-2H-pyran-4-yl)-5-ethyl-7-oxo-4-({[3-(propan-2-yl)bicyclo[1.1.1]pentan-1-yl]carbamoyl}methyl)-2H,4H,7H-[1,2,3]triazolo[4,5-b]pyridin-6-yl]-2,5-diazabicyclo[4.2.0]octane-2-carboxylate], the IC50 in test [1] was 5 to 50 nM. The EC50 in test [2] was at most 500 nM.

For `CCc1c(N2CCN(C(=O)c3ncnc(C)c3O)[C@H]3CC[C@@H]32)c(=O)c2nn(-c3ncccc3F)nc2n1CC(=O)NC12CC(C(C)C)(C1)C2` [Compound I-163, 2-[5-ethyl-2-(3-fluoropyridin-2-yl)-6-[(1S,6S)-5-(5-hydroxy-6-methylpyrimidine-4-carbonyl)-2,5-diazabicyclo[4.2.0]octan-2-yl]-7-oxo-2H,4H,7H-[1,2,3]triazolo[4,5-b]pyridin-4-yl]-N-[3-(propan-2-yl)bicyclo[1.1.1]pentan-1-yl]acetamide], the IC50 in test [1] was in the range of 5 to 50 nM. In test [2], the EC50 is over 5000 nM.

For the molecule `CCc1c(N2CCN(C(=O)c3ncnc(C)c3O)[C@H]3CC[C@@H]32)c(=O)c2nn(C3=CC(C)OCC3)nc2n1CC(=O)NC12CC(C3CC3)(C1)C2` (stereo partly drawn) [Compound I-164, N-{3-cyclopropylbicyclo[1.1.1]pentan-1-yl}-2-{5-ethyl-6-[(1S,6S)-5-(5-hydroxy-6-methylpyrimidine-4-carbonyl)-2,5-diazabicyclo[4.2.0]octan-2-yl]-2-(6-methyl-3,6-dihydro-2H-pyran-4-yl)-7-oxo-2H,4H,7H-[1,2,3]triazolo[4,5-b]pyridin-4-yl}acetamide], the IC50 in test [1] lay within 5 to 50 nM. Besides, in test [2], the EC50 is at most 500 nM.

As for `CCc1c(N2CCN(C(=O)c3cc(N4CCN(C)CC4)ccc3OC)[C@H]3CC[C@@H]32)c(=O)c2nn(C3=CCOCC3)nc2n1CC(=O)NC12CC(C(C)C)(C1)C2` [Compound I-165, 2-[2-(3,6-dihydro-2H-pyran-4-yl)-5-ethyl-6-[(1S,6S)-5-[2-methoxy-5-(4-methylpiperazin-1-yl)benzoyl]-2,5-diazabicyclo[4.2.0]octan-2-yl]-7-oxo-2H,4H,7H-[1,2,3]triazolo[4,5-b]pyridin-4-yl]-N-[3-(propan-2-yl)bicyclo[1.1.1]pentan-1-yl]acetamide], the IC50 in test [1] fell in the range of 5 to 50 nM. For the same molecule, the EC50 in test [2] lay in the range of 500 to 2000 nM.

For `CCc1c(N2CCN(C(=O)c3[nH]ncc3OC)[C@H]3CC[C@@H]32)c(=O)c2nn(C3=CCOCC3)nc2n1CC(=O)NC12CC(C(C)C)(C1)C2` [Compound I-166, 2-[2-(3,6-dihydro-2H-pyran-4-yl)-5-ethyl-6-[(1S,6S)-5-(4-methoxy-1H-pyrazole-5-carbonyl)-2,5-diazabicyclo[4.2.0]octan-2-yl]-7-oxo-2H,4H,7H-[1,2,3]triazolo[4,5-b]pyridin-4-yl]-N-[3-(propan-2-yl)bicyclo[1.1.1]pentan-1-yl]acetamide], in test [1], the IC50 lay in the range of 5 to 50 nM. Further, the EC50 in test [2] was in the range of 500 to 2000 nM.

As to `CCc1c(N2CCN(C(=O)c3ncncc3OC)[C@H]3CC[C@@H]32)c(=O)c2nn(C3=CCOCC3)nc2n1CC(=O)NC12CC(C(C)C)(C1)C2` [Compound I-167, 2-[2-(3,6-dihydro-2H-pyran-4-yl)-5-ethyl-6-[(1S,6S)-5-(5-methoxypyrimidine-4-carbonyl)-2,5-diazabicyclo[4.2.0]octan-2-yl]-7-oxo-2H,4H,7H-[1,2,3]triazolo[4,5-b]pyridin-4-yl]-N-[3-(propan-2-yl)bicyclo[1.1.1]pentan-1-yl]acetamide], in test [1], the IC50 lay within 5 to 50 nM. In addition, the EC50 in test [2] lay in the range of 500 to 2000 nM.

Consider `CCc1c(N2CCN(C(=O)c3c(C#N)cncc3OC)[C@H]3CC[C@@H]32)c(=O)c2nn(C3=CCOCC3)nc2n1CC(=O)NC12CC(C(C)C)(C1)C2` [Compound I-168, 2-{6-[(1S,6S)-5-(3-cyano-5-methoxypyridine-4-carbonyl)-2,5-diazabicyclo[4.2.0]octan-2-yl]-2-(3,6-dihydro-2H-pyran-4-yl)-5-ethyl-7-oxo-2H,4H,7H-[1,2,3]triazolo[4,5-b]pyridin-4-yl}-N-[3-(propan-2-yl)bicyclo[1.1.1]pentan-1-yl]acetamide], for which the IC50 in test [1] lay in the range of 5 to 50 nM. In addition, in test [2], the EC50 was 500 to 2000 nM.

In the case of `CCc1c(N2CCN(C(=O)c3cccc(N4CCN(C)CC4)c3OC)[C@H]3CC[C@@H]32)c(=O)c2nn(C3=CCOCC3)nc2n1CC(=O)NC12CC(C(C)C)(C1)C2` [Compound I-169, 2-[2-(3,6-dihydro-2H-pyran-4-yl)-5-ethyl-6-[(1S,6S)-5-[2-methoxy-3-(4-methylpiperazin-1-yl)benzoyl]-2,5-diazabicyclo[4.2.0]octan-2-yl]-7-oxo-2H,4H,7H-[1,2,3]triazolo[4,5-b]pyridin-4-yl]-N-[3-(propan-2-yl)bicyclo[1.1.1]pentan-1-yl]acetamide], the IC50 in test [1] lay within 5 to 50 nM. Further, in test [2], the EC50 fell in the range of 2000 to 5000 nM.

Turning to `CCc1c(N2CCN(C(=O)c3[nH]cnc3C#N)[C@H]3CC[C@@H]32)c(=O)c2nn(C3=CCOCC3)nc2n1CC(=O)NC12CC(C(C)C)(C1)C2` [Compound I-170, 2-{6-[(1S,6S)-5-(4-cyano-1H-imidazole-5-carbonyl)-2,5-diazabicyclo[4.2.0]octan-2-yl]-2-(3,6-dihydro-2H-pyran-4-yl)-5-ethyl-7-oxo-2H,4H,7H-[1,2,3]triazolo[4,5-b]pyridin-4-yl}-N-[3-(propan-2-yl)bicyclo[1.1.1]pentan-1-yl]acetamide], the IC50 in test [1] was in the range of 5 to 50 nM. Moreover, in test [2], the EC50 is over 5000 nM.

For `CCc1c(N2CCN(C(=O)c3nocc3O)[C@H]3CC[C@@H]32)c(=O)c2nn(C3=CCOCC3)nc2n1CC(=O)NC12CC(C(C)C)(C1)C2` [Compound I-171, 2-[2-(3,6-dihydro-2H-pyran-4-yl)-5-ethyl-6-[(1S,6S)-5-(4-hydroxy-1,2-oxazole-3-carbonyl)-2,5-diazabicyclo[4.2.0]octan-2-yl]-7-oxo-2H,4H,7H-[1,2,3]triazolo[4,5-b]pyridin-4-yl]-N-[3-(propan-2-yl)bicyclo[1.1.1]pentan-1-yl]acetamide], in test [1], the IC50 is at most 5 nM. Also, the EC50 in test [2] was at most 500 nM.

Turning to `CCc1c(C2=CCN(C(=O)c3ncnc(C)c3O)CC2(C)C)c(=O)n2nc(C3=CCOCC3)nc2n1CC(=O)Nc1ccc(C(F)(F)F)cc1Cl` [Compound I-174, N-[2-chloro-4-(trifluoromethyl)phenyl]-2-[2-(3,6-dihydro-2H-pyran-4-yl)-5-ethyl-6-[1-(5-hydroxy-6-methylpyrimidine-4-carbonyl)-3,3-dimethyl-1,2,3,6-tetrahydropyridin-4-yl]-7-oxo-4H,7H-[1,2,4]triazolo[1,5-a]pyrimidin-4-yl]acetamide], the IC50 in test [1] lay within 5 to 50 nM. For the same molecule, the EC50 in test [2] was at most 500 nM.
